Measured values as given in patent publication US20100048545A1, “Compounds and Compositions for Use in the Prevention and Treatment of Disorders of Fat Metabolism and Obesity” (INNODIA INC., priority 2006, published 2010).

What was measured:
wistar obese rats = experiment: Reversal of weight gain in rat model of diet-induced obesity, 28 days; details: 100 mg/kg twice daily oral
From the text: The aim of this study was to evaluate the effect of chronic administration of 4-hydroxyisoleucine (4-OH, Compound 14a) on food consumption, tissue weight, and body weight gain of wistar obese rats.
A total of 30 animals were used in the study. The animals were acclimated for 1 week and fed standard chow. The animals were randomized into 3 groups of 10 animals each. Two groups were fed a high fat, high sucrose diet (HFHS), and 1 untreated control group was fed standard chow over a 28 day period. Animals were housed separately and food consumption was monitored daily.
In the following period of 28 days, the feeding regimen remained the same for the 3 groups; however, 1 group fed HFHS was treated with twice daily oral administration of 4-OH at 100 mg/kg per dose. For the 28 days of treatment, 4-OH was dissolved in reverse osmosis water, aliquoted, and kept at 4° C. Untreated animals received water twice daily.

ob/ob mouse = experiment: Body weight gain and food consumption of ob/ob mice, 56 days; type: in vivo; details: 100 mg/kg twice daily
From the text: The objective of this study was to evaluate the effect of chronic administration of 4-hydroxyisoleucine (4-OH, compound 14a) on food consumption and body weight gain in a genetic model of obesity, the ob/ob mouse. Body weight gain and food consumption were monitored for 1 week prior to the commencement of treatment, and then for the 56 days of treatment.
A total of 16 animals were used in the study. The animals were distributed into 2 groups (1 treated, 1 control group, all on standard chow). Each group was composed of 8 animals. The mice were randomized according to body weight values.
For the eight weeks of treatment, the test agent was dissolved in reverse osmosis water. 4-hydroxyisoleucine was aliquoted and kept at 4° C. Control animals received reverse osmosis water twice daily (group 1). Mice from group 2 were treated twice daily with 4-OH at 100 mg/kg. All groups were treated by oral gavage. Treatment commenced on Day 0 and ended on Day 56 (FIGS. 21A and 21B). Food consumption was measured daily and averaged on a weekly basis beginning one week before the start of treatment as shown in FIG. 21B.

Agouti mice = experiment: Weight gain and food consumption in Agouti mice, 21 days; type: in vivo; details: 50 or 100 mg/kg orally twice daily
Procedure: Agouti mice, which are obese, diabetic and leptin resistant, were treated orally twice daily with 50 or 100 mg/kg of 4-[…] for 21 consecutive days. Body weight and food consumption were measured daily.

Compound: C[C@@H]([C@H](C)O)[C@H](N)C(=O)O [Compound 14a, (2S,3R,4S)-4-Hydroxyisoleucine]
- epididymal and peri-renal adipose tissue (wistar obese rats): reduction of epididymal and peri-renal adipose tissue
- food consumption (wistar obese rats): reduction in food consumption
- muscle, brown fat, and organ weight (wistar obese rats): not affected
- tolerability of treatment (wistar obese rats; after 28 days HFHS): well tolerated
- weight gain (wistar obese rats; after 28 days HFHS): reversal of weight gain
- weight gain (wistar obese rats; after 28 days HFHS, listed as 4-OH): Moderation of weight gain was observed
- food consumption (ob/ob mouse): slight decrease in food consumption during the first three weeks of treatment
- weight gain (ob/ob mouse; Day 21 to Day 56, vs control group): significantly reduced
- weight gain (ob/ob mouse; course of treatment): moderation of weight gain was observed
- tolerability of treatment (ob/ob mouse; oral gavage, 56 days): well tolerated
- food intake (Agouti mice): little effect on food intake
- body weight gain (Agouti mice; vs vehicle): significant decrease of body weight gain
